Measurements reported in ChEMBL document CHEMBL3286119, “Biarylmethoxy Nicotinamides As Novel and Specific Inhibitors of Mycobacterium tuberculosis” (ACS Med Chem Lett, 2014).
Active and inactive are the calls of the source.

Experiments:
Format in all cases: functional, organism-based
[1] = test system: Mycobacterium tuberculosis; assay: Antimicrobial activity against isoniazid-resistant Mycobacterium tuberculosis ATCC 35822 after 2 to 3 weeks
[2] = test system: Mycobacterium tuberculosis; assay: Antimicrobial activity against streptomycin-resistant Mycobacterium tuberculosis ATCC 35820 after 2 to 3 weeks
[3] = test system: Mycobacterium tuberculosis; assay: Antimicrobial activity against rifampicin-resistant Mycobacterium tuberculosis 19000 after 2 to 3 weeks
[4] = test system: Mycobacterium tuberculosis; assay: Antimicrobial activity against ethionamide-resistant Mycobacterium tuberculosis 1700 after 2 to 3 weeks

Measured: Activity

CC(C)OCCOc1ccc(-c2cnc(COc3ncccc3C(N)=O)nc2)c(Cl)c1
active: [1] | [2] | [3] | [4]

COCCOc1ccc(-c2ccc(COc3ncccc3C(N)=O)nc2)c(C)c1
active: [1] | [2] | [3] | [4]

NC(=O)c1cccnc1OCc1ncc(-c2ccc(OCCCF)cc2Cl)cn1
active: [1] | [2] | [3] | [4]
